The first assay concerns the target T1, ICE (Homo sapiens, UniProt P29466).
T1 sequence (P29466 120-297 limits assumed): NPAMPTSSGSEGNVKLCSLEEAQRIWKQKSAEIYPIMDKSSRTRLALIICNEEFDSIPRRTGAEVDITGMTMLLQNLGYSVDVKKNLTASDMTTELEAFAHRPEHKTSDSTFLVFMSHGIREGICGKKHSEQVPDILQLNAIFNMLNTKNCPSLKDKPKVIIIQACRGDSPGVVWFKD
T1 sequence (P29466 317-404 limits assumed): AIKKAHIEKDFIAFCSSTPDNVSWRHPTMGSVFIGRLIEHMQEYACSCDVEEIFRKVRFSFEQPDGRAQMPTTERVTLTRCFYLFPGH
In words: Enzyme assay with UV-visible substrate (visible ICE assay, Succinyl-Tyr-Val-Ala-Asp-pNitroanilide). Format: biochemical. The settings on record: Table 5. As for the experimental part: 1. Enzyme Assay with Uv-Visible Substrate
This assay is run using an Succinyl-Tyr-Val-Ala-Asp-pNitroanilide substrate. Synthesis of analogous substrates is described by L. A. Reiter (Int. J. Peptide Protein Res. 12, 87-96 (1994)). The assay mixture contains:
The visible ICE assay is run in a 96-well microtiter plate. Buffer, ICE and DMSO (if inhibitor is present) are added to the wells in the order listed. The components are left to incubate at room temperature for 15 minutes starting at the time that all components are present in all wells. The microtiter plate reader is set to incubate at 37° C. After the 15 minute incubation, substrate is added directly to the wells and the reaction is monitored by following the release of the chromophore (pNA) at 405-603 nm at 37° C. for 20 minutes. A linear fit of the data is performed and the rate is calculated in mOD/min. DMSO is only present during experiments involving inhibitors, buffer is used to make up the volume to 100 μl in the other experiments.
For determination of enzyme inhibition constants (Ki) or the mode of inhibition (competitive, uncompetitive or noncompetitive), the rate data determined in the enzyme assays at varying inhibitor concentrations are computer-fit to standard enzyme kinetic equations (see I. H. Segel, Enzyme Kinetics, Wiley-Interscience, 1975).
With `O=C[C@H](CC(=O)O)NC(=O)[C@@H]1CCCN2C(=O)CC[C@H](NC(=O)/C=C/c3ccncc3)C(=O)N12` [Compound 472], the affinity corresponds to a Ki of 0.14 µM. Compound `O=C[C@H](CC(=O)O)NC(=O)[C@@H]1CCCN2C(=O)CC[C@H](NC(=O)c3ccc(O)c(CN4CCOCC4)c3)C(=O)N12` [Compound 477] came in with an inhibitory constant (Ki) of 0.06 µM. Same read-out and setting: in the case of `CC(=O)N1C[C@H](NS(=O)(=O)c2ccccc2)C(=O)N(CC(=O)N[C@H](C=O)CC(=O)O)c2ccccc21` [Compound 629] it was 0.23 µM. Still for that read-out and setting: in the case of `NS(=O)(=O)c1ccc(C(=O)N[C@H]2CCC(=O)N3CCC[C@@H](C(=O)N[C@H](C=O)CC(=O)O)N3C2=O)cc1` [Compound 478] it was 0.38 µM; in that of `CC(=O)N1C[C@H](NS(=O)(=O)Cc2ccccc2)C(=O)N(CC(=O)N[C@H](C=O)CC(=O)O)c2ccccc21` [Compound 631], 0.805 µM; in that of `CC(=O)N1C[C@H](NC(=O)c2sc(C)nc2C)C(=O)N(CC(=O)N[C@H](C=O)CC(=O)O)c2ccccc21` [Compound 625], 0.105 µM. Turning to `CC(=O)N1C[C@H](NC(=O)c2ccc3cc(OC(=O)c4ccc5cc(O)ccc5c4)ccc3c2)C(=O)N(CC(=O)N[C@H](C=O)CC(=O)O)c2ccccc21` [Compound 623], the Ki is 0.009 µM. Same read-out and setting: in the case of `CC(=O)N1C[C@H](NC(=O)Cc2ccccc2)C(=O)N(CC(=O)N[C@H](C=O)CC(=O)O)c2ccccc21` [Compound 630] it was 0.27 µM.

Still in this assay, the particulars now being: Table 17.
The compound `O=C[C@H](CC(=O)O)NC(=O)[C@@H]1CCCN2C(=O)CCN(NC(=O)C(=O)Nc3ccc(Cl)cc3)C(=O)N12` [Compound 1120] registered a Ki of 0.095 µM. The compound `COc1cc(C(=O)C(=O)NN2CCC(=O)N3CCC[C@@H](C(=O)N[C@H](C=O)CC(=O)O)N3C2=O)cc(OC)c1OC` [Compound 1124] had a Ki of 0.27 µM. On the same count and under the same terms, in the case of `O=C[C@H](CC(=O)O)NC(=O)[C@@H]1CCCN2C(=O)CCN(NC(=O)CC3CCCCC3)C(=O)N12` [Compound 1118] it was 0.38 µM; in that of `CC(=O)N1C[C@H](NC(=O)C(=O)c2cccs2)C(=O)N(CC(=O)N[C@H](C=O)CC(=O)O)c2ccccc21` [Compound 701], 0.09 µM. Same read-out and setting: in the case of `O=C[C@H](CC(=O)O)NC(=O)[C@@H]1CCCN2C(=O)CCN(NC(=O)CCC3CCCCC3)C(=O)N12` [Compound 1119] it was 0.515 µM.

Still in this assay, the particulars now being: Table 27.
For `O=C[C@H](CC(=O)O)NC(=O)CN1C(=O)[C@@H](NC(=O)c2nccc3ccccc23)CN(C(=O)CO)c2cc(F)ccc21` [Compound 696-1, (3S)-3-[(3S)-2-oxo-3-isoquinolin-1-oylamino-5-hydroxyacetyl-2,3,4,5-tetrahydro-7-fluoro-1H-1,5-benzodiazepine-1-acetylamino]-4-oxobutyric acid], the Ki was 0.0005 µM. That is a sub-nanomolar value.

For the compound `O=C[C@H](CC(=O)O)NC(=O)CN1C(=O)[C@@H](NC(=O)c2nccc3ccccc23)CN(C(=O)CO)c2cc(Cl)ccc21` [Compound 696-2, (3S)-3-[(3S)-2-Oxo-3-isoquinolin-1-oylamino-5-hydroxyacetyl-2,3,4,5-tetrahydro-7-chloro-1H-1,5-benzodiazepine-1-acetylamino]-4-oxobutyric acid], the affinity, expressed as Ki, was 0.0005 µM. On the same count and under the same terms, in the case of `COCC(=O)N1C[C@H](NC(=O)c2cc(C)c(O)c(C)c2)C(=O)N(CC(=O)N[C@H](/C=N/OCc2c(Cl)cccc2Cl)CC(=O)O)c2ccccc21` [Compound 688c, (3S)-3-[(3S)-2-Oxo-3-(3,5-dimethyl-4-hydroxybenzoyl)amino-5-methoxyacetyl-2,3,4,5-tetrahydro-1H-1,5-benzodiazepine-1-acetylamino]-4-oxobutyric acid, O-2,6-dichlorobenzyl oxime] it was 0.2 µM. Still for that read-out and setting: in the case of `COC(=O)N1C[C@H](NC(=O)c2ccc(O)c(Cl)c2)C(=O)N(CC(=O)N[C@H](C=O)CC(=O)O)c2ccccc21` [Compound 720] it was 0.0027 µM.

By Ki is commonly meant the equilibrium dissociation constant of an inhibitor or competing ligand from its target. Read a high Ki as weaker binding.

The values are drawn from patent US20120165319A1, “INHIBITORS OF INTERLEUKIN-1 BETA CONVERTING ENZYME” (VERTEX PHARMACEUTICALS INCORPORATED, priority 1995, published 2012).
